# What was measured:
# human TASK-1 = human TASK-1 (Homo sapiens, UniProt O14649); assay: Inhibition of recombinant TASK-1 in stably transfected CHO cells, KCl-induced depolarization, voltage-sensitive dye (B-2); assay type: cell-based; parameters: expressed in transfected cells; host or cells: stably transfected CHO cells; details: depolarization induced by 40 mM potassium chloride, some mean values from multiple determinations
# In short: (§1)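 Stably transfected CHO cells loaded with a voltage-sensitive membrane potential dye. Depolarization was induced with 40 mM KCl, and compound inhibition of it was read by fluorescence. IC50 is the concentration blocking half of the KCl-induced depolarization; some values are means of multiple independent determinations.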
# human TASK-3 = human TASK-3 (Homo sapiens, UniProt Q9NPC2); assay: Inhibition of recombinant TASK-3 in stably transfected CHO cells, KCl-induced depolarization, voltage-sensitive dye (B-2); assay type: cell-based; parameters: expressed in transfected cells; host or cells: stably transfected CHO cells; details: depolarization induced by 40 mM potassium chloride, some mean values from multiple determinations
# Sequence of human TASK-3 (Q9NPC2 whole entry): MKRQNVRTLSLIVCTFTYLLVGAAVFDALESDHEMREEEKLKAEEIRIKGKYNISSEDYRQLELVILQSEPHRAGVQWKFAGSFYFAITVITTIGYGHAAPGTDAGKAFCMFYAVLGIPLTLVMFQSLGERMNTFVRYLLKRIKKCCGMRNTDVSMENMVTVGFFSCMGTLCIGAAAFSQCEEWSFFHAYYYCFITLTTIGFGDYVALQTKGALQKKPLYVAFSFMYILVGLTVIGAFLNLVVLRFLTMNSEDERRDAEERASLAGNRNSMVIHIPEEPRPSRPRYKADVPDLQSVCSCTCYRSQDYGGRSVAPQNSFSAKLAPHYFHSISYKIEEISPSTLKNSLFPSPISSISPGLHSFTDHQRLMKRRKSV
# In short: as §1
# Sequence of human TASK-1 (O14649 whole entry): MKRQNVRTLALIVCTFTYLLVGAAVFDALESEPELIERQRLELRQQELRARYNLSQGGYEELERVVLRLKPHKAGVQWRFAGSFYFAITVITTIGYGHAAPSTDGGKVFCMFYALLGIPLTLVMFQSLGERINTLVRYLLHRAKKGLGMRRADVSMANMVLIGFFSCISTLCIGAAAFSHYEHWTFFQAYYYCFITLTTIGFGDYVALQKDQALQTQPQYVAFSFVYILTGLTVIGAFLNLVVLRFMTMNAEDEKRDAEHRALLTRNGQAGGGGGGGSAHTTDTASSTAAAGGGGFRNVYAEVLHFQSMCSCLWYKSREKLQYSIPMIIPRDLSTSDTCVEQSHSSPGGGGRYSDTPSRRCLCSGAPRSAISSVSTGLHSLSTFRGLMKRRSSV
SMILES,IC50 (human TASK-1),IC50 (human TASK-3)
"Cc1ccc(C)c(NC(=O)N2C3CCC2CN(Cc2c(-c4ccc(Cl)cc4)nc4ccccn24)C3)c1 [Example 163, 3-{[2-(4-Chlorophenyl)imidazo[1,2-a]pyridin-3-yl]methyl}-N-(2,5-dimethylphenyl)-3,8-diazabicyclo[3.2.1]octane-8-carboxamide]",1400 nM,160 nM
"CCOC(=O)N1C2COCC1CN(Cc1c(-c3ccc(Cl)cc3)nc3ccccn13)C2 [Example 195, Ethyl 7-{[2-(4-chlorophenyl)imidazo[1,2-a]pyridin-3-yl]methyl}-3-oxa-7,9-diazabicyclo[3.3.1]nonane-9-carboxylate]",230 nM,8.1 nM
"O=C(Nc1c(Cl)cccc1Cl)N1C2CCC1CN(Cc1c(-c3ccc(Cl)cc3)nc3ccccn13)C2 [Example 156, 3-{[2-(4-Chlorophenyl)imidazo[1,2-a]pyridin-3-yl]methyl}-N-(2,6-dichlorophenyl)-3,8-diazabicyclo[3.2.1]octane-8-carboxamide]",1200 nM,15 nM
"COc1cccc(C(=O)N2CC3CCC2CN3Cc2c(-c3ccc(Br)cc3)nc3ccccn23)n1 (racemic) [Example 151, (5-{[2-(4-Bromophenyl)imidazo[1,2-a]pyridin-3-yl]methyl}-2,5-diazabicyclo[2.2.2]oct-2-yl)(6-methoxypyridin-2-yl)methanone]",72 nM,1.8 nM
"O=C(c1ccncc1)N1CC2CCC1CN2Cc1c(-c2ccc(Cl)cc2)nc2ccccn12 (single isomer, unassigned) [Example 55]",2000 nM,320 nM
"CCc1cccc(C)c1NC(=O)N1C2CCC1CN(Cc1c(-c3ccc(Cl)cc3)nc3ccccn13)C2 [Example 162, 3-{[2-(4-Chlorophenyl)imidazo[1,2-a]pyridin-3-yl]methyl}-N-(2-ethyl-6-methylphenyl)-3,8-diazabicyclo[3.2.1]octane-8-carboxamide]",53 nM,13 nM
"O=C(c1cccc(OC(F)F)n1)N1CC2CCC1CN2Cc1c(-c2ccc(Cl)cn2)nc2ccccn12 (single isomer, unassigned; enantiomer 1) [Example 200, (5-{[2(5-Chloropyridin-2-yl)imidazo[1,2-a]pyridin-3-yl]methyl}-2,5-diazabicyclo[2.2.2]oct-2-yl)[6-(difluoromethoxy)pyridin-2-yl]methanone (enantiomer 1)]",877 nM,75 nM
"COc1ccc(F)c(C(=O)N2C[C@@H]3CC[C@H]2CN3Cc2c(-c3ccc(Cl)cc3)nc3ccccn23)n1 (single isomer, unassigned; enantiomer 1) [Example 23]",790 nM,170 nM
COc1ccc(C)c(C(=O)N2C3COCC2CN(Cc2c(-c4ccc(Cl)cc4)nc4ccccn24)C3)n1 [Example 81],520 nM,25 nM
COc1cccc(C(=O)N2C3COCC2CN(Cc2c(-c4ccc(Cl)cc4)nc4ccccn24)C3)c1 [Example 70],1900 nM,160 nM
"CC(C)N(C)C(=O)N1C2COCC1CN(Cc1c(-c3ccc(Cl)cc3)nc3ccccn13)C2 [Example 194, 7-{[2-(4-Chlorophenyl)imidazo[1,2-a]pyridin-3-yl]methyl}-N-isopropyl-N-methyl-3-oxa-7,9-diazabicyclo[3.3.1]nonane-9-carboxamide]",3000 nM,290 nM
"O=C(N1CCOCC1)N1C2COCC1CN(Cc1c(-c3ccc(Cl)cc3)nc3ccccn13)C2 [Example 189, (7-{[2-(4-Chlorophenyl)imidazo[1,2-a]pyridin-3-yl]methyl}-3-oxa-7,9-diazabicyclo[3.3.1]non-9-yl)(morpholin-4-yl)methanone]",8300 nM,520 nM
"O=C(OC1CCCC1)N1C2CCC1CN(Cc1c(-c3ccc(Cl)cc3)nc3ccccn13)C2 [Example 186, Cyclopentyl 3-{[2-(4-chlorophenyl)imidazo[1,2-a]pyridin-3-yl]methyl}-3,8-diazabicyclo[3.2.1]octane-8-carboxylate]",730 nM,44 nM
O=C(C1CCC1)N1C2CCC1CN(Cc1c(-c3ccc(Cl)cc3)nc3ccccn13)C2 [Example 101],370 nM,7.2 nM
"O=C(c1cccc(OC2CCC2)n1)N1C2COCC1CN(Cc1c(-c3ccc(Cl)cc3)nc3ccccn13)C2 [Example 31, (7-{[2-(4-Chlorophenyl)imidazo[1,2-a]pyridin-3-yl]methyl}-3-oxa-7,9-diazabicyclo[3.3.1]non-9-yl)[6-(cyclobutyloxy)pyridin-2-yl]methanone]",310 nM,26 nM
COc1ccc(F)cc1C(=O)N1CC2CCC(C1)N2Cc1c(-c2ccc(Cl)cc2)nc2ccccn12 [Example 89],827 nM,220 nM
O=C(c1ccccc1F)N1C2CCC1CN(Cc1c(-c3ccc(Cl)cn3)nc3ccccn13)C2 [Example 111],110 nM,25 nM
"O=C(Nc1ccc(Cl)cc1)N1C2CCC1CN(Cc1c(-c3ccc(Cl)cc3)nc3ccccn13)C2 [Example 161, N-(4-Chlorophenyl)-3-{[2-(4-chlorophenyl)imidazo[1,2-a]pyridin-3-yl]methyl}-3,8-diazabicyclo[3.2.1]octane-8-carboxamide]",7700 nM,1000 nM

SMILES,IC50 (human TASK-1),IC50 (human TASK-3)
"COc1cccc(C(=O)N2CC3CCC2CN3Cc2c(-c3ccc(C(C)C)cc3)nc3ccccn23)n1 (single isomer, unassigned) [Example 61]",680 nM,87 nM
"CC(C)N(C)C(=O)N1C2CCC1CN(Cc1c(-c3ccc(Cl)cc3)nc3ccccn13)C2 [Example 178, 3-{[2-(4-Chlorophenyl)imidazo[1,2-a]pyridin-3-yl]methyl}-N-isopropyl-N-methyl-3,8-diazabicyclo[3.2.1]octane-8-carboxamide]",290 nM,17 nM
COc1ccccc1C(=O)N1C2CCC1CN(Cc1c(-c3ccc(Cl)cc3)nc3ccccn13)C2 [Example 109],693 nM,92 nM
"O=C(Nc1ccccc1Cl)N1C2CCC1CN(Cc1c(-c3ccc(Cl)cc3)nc3ccccn13)C2 [Example 171, N-(2-Chlorophenyl)-3-{[2-(4-chlorophenyl)imidazo[1,2-a]pyridin-3-yl]methyl}-3,8-diazabicyclo[3.2.1]octane-8-carboxamide]",1800 nM,26 nM
"COc1ccc(C)c(C(=O)N2C3CC2CN(Cc2c(-c4ccc(Cl)cc4)nc4ccccn24)C3)n1 [Example 142, (3-{[2-(4-Chlorophenyl)imidazo[1,2-a]pyridin-3-yl]methyl}-3,6-diazabicyclo[3.1.1]hept-6-yl)(6-methoxy-3-methylpyridin-2-yl)methanone]",240 nM,98 nM
"CC(C)c1csc(C(=O)N2C3CCC2CN(Cc2c(-c4ccc(Cl)cc4)nc4ccccn24)C3)n1 [Example 146, (3-{[2-(4-Chlorophenyl)imidazo[1,2-a]pyridin-3-yl]methyl}-3,8-diazabicyclo[3.2.1]oct-8-yl)(4-isopropyl-1,3-thiazol-2-yl)methanone]",920 nM,340 nM
"COc1ccc(C)c(C(=O)N2CC3CCC(C2)N3Cc2c(-c3ccc(Cl)cc3)nc3ccccn23)n1 [Example 143, (8-{[2-(4-Chlorophenyl)imidazo[1,2-a]pyridin-3-yl]methyl}-3,8-diazabicyclo[3.2.1]oct-3-yl)(6-methoxy-3-methylpyridin-2-yl)methanone]",130 nM,14 nM
"COc1ccc(F)cc1C(=O)N1CC2CCC1CN2Cc1c(-c2ccc(Cl)cc2)nc2ccccn12 (single isomer, unassigned) [Example 45]",340 nM,13 nM
"CCN(C(=O)N1C2CCC1CN(Cc1c(-c3ccc(Cl)cc3)nc3ccccn13)C2)c1ccccc1 [Example 177, 3-{[2-(4-Chlorophenyl)imidazo[1,2-a]pyridin-3-yl]methyl}-N-ethyl-N-phenyl-3,8-diazabicyclo[3.2.1]octane-8-carboxamide]",4000 nM,130 nM
"CCN(CC)C(=O)N1C2COCC1CN(Cc1c(-c3ccc(Cl)cc3)nc3ccccn13)C2 [Example 188, 7-{[2-(4-Chlorophenyl)imidazo[1,2-a]pyridin-3-yl]methyl}-N,N-diethyl-3-oxa-7,9-diazabicyclo[3.3.1]nonane-9-carboxamide]",60 nM,5.9 nM
"COc1ccc(F)c(C(=O)N2CC3CCC2CN3Cc2c(-c3ccc(Cl)cn3)nc3ccccn23)n1 (single isomer, unassigned) [Example 66]",1100 nM,110 nM
"Cc1ccc(F)cc1C(=O)N1CC2CCC1CN2Cc1c(-c2ccc(Cl)cc2)nc2ccccn12 (single isomer, unassigned) [Example 47]",70 nM,15 nM
"COc1ccc(C)c(C(=O)N2CC3CCC2CN3Cc2c(-c3ccc(C(C)C)cc3)nc3ccccn23)n1 (single isomer, unassigned) [Example 137]",190 nM,14 nM
COc1cccc(C(=O)N2CC3CCC2CN3Cc2c(-c3ccc(Cl)cn3)nc3ccccn23)n1 (stereo not drawn) [Example 65],2000 nM,460 nM
O=C(C1CCOC1)N1C2COCC1CN(Cc1c(-c3ccc(Cl)cc3)nc3ccccn13)C2 (stereo not drawn) [Example 78],1600 nM,65 nM
"O=C(Nc1c(F)cccc1F)N1C2CCC1CN(Cc1c(-c3ccc(Cl)cc3)nc3ccccn13)C2 [Example 166, 3-{[2-(4-Chlorophenyl)imidazo[1,2-a]pyridin-3-yl]methyl}-N-(2,6-difluorophenyl)-3,8-diazabicyclo[3.2.1]octane-8-carboxamide]",990 nM,44 nM
O=C(c1cc(F)ccc1Cl)N1C2CC1CN(Cc1c(-c3ccc(Cl)cc3)nc3ccccn13)C2 [Example 119],1100 nM,1500 nM
"O=C(C1CCC1)N1CC2CCC1CN2Cc1c(-c2ccc(Cl)cc2)nc2ccccn12 (single isomer, unassigned) [Example 43]",320 nM,8.9 nM
